Measurements: ChEMBL document CHEMBL1201862, “PubChem BioAssay data set” (2004)
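Results reflect a 48-hour exposure of cells in 96-well plates to compound at five concentrations. GI50 = concentration required for 50% inhibition of growth.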 Activity calls are given as the source filed them. Rule as the data show it: active = GI50 up to about 1.1 µM and inactive = higher.

What was measured:
Assay in all cases: NCI-60 cell line screen, 48 h
PC-3 = test system: PC-3
OVCAR-3 = test system: OVCAR-3
NCI-H460 = test system: NCI-H460
NCI-H23 = test system: NCI-H23
A498 = test system: A498
NCI-H226 = test system: NCI-H226
A549 = test system: A549
TK-10 = test system: TK-10
IGROV-1 = test system: IGROV-1
K562 = test system: K562
UACC-62 = test system: UACC-62
MCF7 = test system: MCF7
SN12C = test system: SN12C
HT-29 = test system: HT-29
EKVX = test system: EKVX
DU-145 = test system: DU-145
UO-31 = test system: UO-31
NCI-H522 = test system: NCI-H522
HOP-62 = test system: HOP-62

| SMILES | GI50 (PC-3) | GI50 (OVCAR-3) | GI50 (NCI-H460) | GI50 (NCI-H23) | GI50 (A498) | GI50 (NCI-H226) | GI50 (A549) | GI50 (TK-10) | GI50 (IGROV-1) | GI50 (K562) | GI50 (UACC-62) | GI50 (MCF7) | GI50 (SN12C) | GI50 (HT-29) | GI50 (EKVX) | GI50 (DU-145) | GI50 (UO-31) | GI50 (NCI-H522) | GI50 (HOP-62) |
| --- | --- | --- | --- | --- | --- | --- | --- | --- | --- | --- | --- | --- | --- | --- | --- | --- | --- | --- | --- |
| Cc1ccc(OCCn2cc(Nc3ccccc3)c(=O)[nH]c2=O)cc1 | > 100 µM (inactive) | > 100 µM (inactive) | > 100 µM (inactive) | > 100 µM (inactive) | > 100 µM (inactive) | > 100 µM (inactive) | > 100 µM (inactive) | > 100 µM (inactive) | > 100 µM (inactive) | > 100 µM (inactive) | > 100 µM (inactive) | > 100 µM (inactive) | > 100 µM (inactive) | 81.7 µM (inactive) | > 100 µM (inactive) | > 100 µM (inactive) | > 100 µM (inactive) | > 100 µM (inactive) |  |
| SC1=NC2(CCCCCC2)NN1c1ccccc1 | 29.6 µM (inactive) | 9.91 µM (inactive) | 0.979 µM (active) | 9.23 µM (inactive) | 50.5 µM (inactive) | > 100 µM (inactive) | 0.206 µM (active) | > 28.6 µM (inactive) | > 39.4 µM (inactive) | 0.019 µM (active) | 0.0208 µM (active) | 1.36 µM (inactive) | > 27.3 µM (inactive) | 1.35 µM (inactive) | 36.5 µM (inactive) | 0.0708 µM (active) | 0.168 µM (active) | > 100 µM (inactive) |  |
| COc1ccc(/C=C/C(=O)N[C@@H]2C(=O)N3[C@@H]2SC(C)(C)[C@@H]3C(=O)O)cc1OC | > 100 µM (inactive) | > 100 µM (inactive) | > 100 µM (inactive) | > 100 µM (inactive) | > 100 µM (inactive) | > 100 µM (inactive) | > 100 µM (inactive) | > 100 µM (inactive) |  | > 100 µM (inactive) | > 100 µM (inactive) | > 100 µM (inactive) | > 100 µM (inactive) | > 100 µM (inactive) | > 100 µM (inactive) | > 100 µM (inactive) | > 100 µM (inactive) | 85.5 µM (inactive) | > 100 µM (inactive) |
| COc1ccc(OC)c2c1-c1nnnn1CCC2(C)C | > 100 µM (inactive) | > 100 µM (inactive) | > 100 µM (inactive) | > 100 µM (inactive) | > 100 µM (inactive) | > 100 µM (inactive) |  | > 100 µM (inactive) | > 100 µM (inactive) | > 100 µM (inactive) | > 100 µM (inactive) | > 100 µM (inactive) | > 100 µM (inactive) | > 100 µM (inactive) | > 100 µM (inactive) | > 100 µM (inactive) | > 100 µM (inactive) | > 100 µM (inactive) | > 100 µM (inactive) |
| Cc1cccc(Nc2cc(Cl)nc(SCC(=O)O)n2)c1C [PIRINIXIC ACID] | > 100 µM (inactive) | > 100 µM (inactive) | > 100 µM (inactive) | > 100 µM (inactive) | > 100 µM (inactive) | > 100 µM (inactive) | > 100 µM (inactive) | > 100 µM (inactive) | > 100 µM (inactive) | 87.5 µM (inactive) | > 100 µM (inactive) | > 100 µM (inactive) | > 100 µM (inactive) | > 100 µM (inactive) | > 100 µM (inactive) | > 100 µM (inactive) |  | > 100 µM (inactive) | > 100 µM (inactive) |
| CCC1=NC(N/N=C/c2ccco2)=N/C1=C\c1ccccc1O | 31.2 µM (inactive) |  | 14.9 µM (inactive) | 28.8 µM (inactive) | 68.9 µM (inactive) | 28.4 µM (inactive) | 41.1 µM (inactive) | 59.4 µM (inactive) | 26.4 µM (inactive) | 56.5 µM (inactive) | 22.3 µM (inactive) | 17.9 µM (inactive) | > 100 µM (inactive) | 36 µM (inactive) | 26.7 µM (inactive) | 55.6 µM (inactive) | 11.6 µM (inactive) | 21.8 µM (inactive) | 76.4 µM (inactive) |
